Measurements taken from US10556907B2 (AbbVie Inc., priority 2015, dated 2020).
Like-named read-outs stand apart in the source and are kept apart here.

Experiments:
Test in all cases: Method 1: intracellular Ca2+ release (FLIPR, Calcium 5) in recombinant CHO-K1 cells
Format in all cases: cell-based
human S1PR1 receptor = target: T1, human S1PR1 receptor (Homo sapiens, UniProt P21453); conditions: (1): determined with method 1; read-out: S1P1 EC50
T1 construct: host or cells: CHO-K1
Protocol: (§1) Agonistic activity was measured using two different methods, described below.
(§2) Method 1. Intracellular Ca^2+ Release
(§3) Agonist potency and intrinsic activity was assessed by measurement of intracellular Ca^2+ release. Recombinant CHO-K1 cells (Euroscreen, Brussels, Belgium) expressing human S1PR5, S1PR1, S1PR3 or S1PR4 receptors, aequorin, and GTP binding protein Gq/i5 were cultured using a medium containing nutrient mixture F-12 Ham (Sigma-Aldrich) with 10% FBS, and 100 μg/mL gentamicin and equilibrated at 5% CO2.
(§4) 15.000 cells in 20 μL medium were seeded into Biocoat poly-D-Lysine coated 384 well plates (Becton Dickinson #35-6663) and grown to 95% confluency after 24 h.
(§5) Culture medium was replaced by an assay buffer consisting of HBBS with Ca^2+ and Mg^2+ (Invitrogen #14025-050), 20 mmol/L Hepes (Sigma-Aldrich #H-3375), 2.5 mmol/L probenecid (Sigma-Aldrich #P-8761, and 0.1% BSA (Sigma-Aldrich #A-7030) pH 7.4. The Calcium 5 no-wash FLIPR assay kit (Molecular Devices #5000625) was performed as described in the kit instructions. Cells were incubated with Calcium 5 dye for 1 h at 37° C., 5% CO2 in the dark. After 45 min adaptation to RT assessment of agonist stimulation of intracellular Ca^2+ release was performed by addition of test compounds at concentrations obtained by serial dilution. Phospho-fingolimod was used as positive control. Antagonists were pre-incubated for 10 min with cells before addition of the agonist (phospho-fingolimod at EC80). Measurements were performed using a fluorometric imaging plate reader FLIPR® tetra (Molecular Devices). Agonist at the human S1P receptors were characterized by deducing EC50 (potency) values from a nonlinear fit to the measured fluorescence raw data after normalization to the reference agonist (phospho-fingolimod) curve.

human S1PR3 receptor = target: T2, human S1PR3 receptor (Homo sapiens, UniProt Q99500); conditions: (1): determined with method 1; read-out: S1P3 EC50
T2 construct: host or cells: CHO-K1
T2 sequence (Q99500 whole entry): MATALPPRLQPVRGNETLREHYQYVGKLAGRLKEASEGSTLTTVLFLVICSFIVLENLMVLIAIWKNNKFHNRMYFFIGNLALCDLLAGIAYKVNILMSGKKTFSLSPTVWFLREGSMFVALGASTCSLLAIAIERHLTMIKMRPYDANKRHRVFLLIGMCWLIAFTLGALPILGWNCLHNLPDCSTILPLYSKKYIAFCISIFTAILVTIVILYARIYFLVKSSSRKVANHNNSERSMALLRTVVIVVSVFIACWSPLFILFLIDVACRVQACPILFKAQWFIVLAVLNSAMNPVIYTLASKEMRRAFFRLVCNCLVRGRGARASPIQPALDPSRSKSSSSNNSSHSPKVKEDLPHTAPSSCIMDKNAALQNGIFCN
Protocol: as §1, §2, §3, §4, §5

human S1PR5 receptor = target: T3, human S1PR5 receptor (Homo sapiens, UniProt Q9H228)
T3 construct: host or cells: CHO-K1
T3 sequence (Q9H228 whole entry): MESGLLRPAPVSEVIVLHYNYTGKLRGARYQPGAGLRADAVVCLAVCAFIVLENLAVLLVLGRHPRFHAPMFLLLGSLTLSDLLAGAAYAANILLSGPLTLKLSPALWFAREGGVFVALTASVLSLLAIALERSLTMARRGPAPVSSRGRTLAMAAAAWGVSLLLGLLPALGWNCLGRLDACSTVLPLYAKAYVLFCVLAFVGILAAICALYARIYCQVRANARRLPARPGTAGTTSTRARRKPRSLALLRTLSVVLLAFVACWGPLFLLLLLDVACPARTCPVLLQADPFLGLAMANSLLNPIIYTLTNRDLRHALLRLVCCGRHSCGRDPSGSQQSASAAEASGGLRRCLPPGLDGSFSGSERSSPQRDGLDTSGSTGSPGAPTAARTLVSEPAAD
Protocol: as §1, §2, §3, §4, §5

[1] = agonist potency, determined with method 1 (symbols A-D), read-out: S1P5 EC50 range

T1 sequence (P21453 whole entry): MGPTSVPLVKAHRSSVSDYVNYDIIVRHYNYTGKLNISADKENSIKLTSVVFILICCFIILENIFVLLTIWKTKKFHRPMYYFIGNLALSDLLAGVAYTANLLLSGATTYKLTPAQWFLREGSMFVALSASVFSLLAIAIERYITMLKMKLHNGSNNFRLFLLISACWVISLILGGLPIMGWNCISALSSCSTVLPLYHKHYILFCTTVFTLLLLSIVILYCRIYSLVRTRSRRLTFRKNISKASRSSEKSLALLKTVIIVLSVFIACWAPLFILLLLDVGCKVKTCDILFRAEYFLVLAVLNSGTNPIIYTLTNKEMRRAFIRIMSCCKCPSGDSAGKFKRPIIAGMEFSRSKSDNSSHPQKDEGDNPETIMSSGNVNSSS

EC50 (human S1PR1 receptor) [nM]	EC50 (human S1PR3 receptor) [nM]	EC50 (human S1PR5 receptor; [1]) [nM]	EC50 (human S1PR5 receptor; (1): determined with method 1, read-out: S1P5 EC50 range (bound printed instead of class symbol)) [nM]	Structure (SMILES)
< 1000	> 1000	< 10		CC(CN1CCc2nc(-c3ccc(OCc4cccc(F)c4)cc3)ccc2C1)C(=O)O (stereo not shown) [Compound 109, 3-(2-(4-((3-fluorobenzyl)oxy)phenyl)-7,8-dihydro-1,6-naphthyridin-6(5H)-yl)-2-methylpropanoic acid]
> 1000	> 1000	100 to 1000		Cc1cc(-c2ccc3c(n2)CCN(CC(=O)O)C3)ccc1OCc1ccccc1 [Compound 111, 2-(2-(4-(benzyloxy)-3-methylphenyl)-7,8-dihydro-1,6-naphthyridin-6(5H)-yl)acetic acid]
< 1000	> 1000	< 10		O=C(O)CCN1CCc2nc(-c3ccc(OCc4ccc(Cl)cc4)cc3)c(F)cc2C1 [Compound 187, 3-(2-(4-((4-chlorobenzyl)oxy)phenyl)-3-fluoro-7,8-dihydro-1,6-naphthyridin-6(5H)-yl)propanoic acid]
< 1000	> 1000	10 to 100		CC(CN1CCc2nc(-c3ccc(OCc4ccccc4)cc3F)ccc2C1)C(=O)O (stereo not shown) [Compound 102, 3-(2-(4-(benzyloxy)-2-fluorophenyl)-7,8-dihydro-1,6-naphthyridin-6(5H)-yl)-2-methylpropanoic acid]
> 1000	> 1000	< 10		O=C(O)CCCN1CCc2nc(-c3ccc(OCc4cccc(F)c4)cc3)ccc2C1 [Compound 116, 4-(2-(4-((3-fluorobenzyl)oxy)phenyl)-7,8-dihydro-1,6-naphthyridin-6(5H)-yl)butanoic acid]
> 1000	> 1000	10 to 100		CCc1cccc(Cl)c1COc1ccc(-c2nc3c(cc2F)CN(CCC(=O)O)CC3)cc1 [Compound 196, 3-(2-(4-((2-chloro-6-ethylbenzyl)oxy)phenyl)-3-fluoro-7,8-dihydro-1,6-naphthyridin-6(5H)-yl)propanoic acid]
> 1000	> 1000	< 10		CC(CC(=O)O)N1CCc2nc(-c3ccc(OCc4ccc(F)c(F)c4)cc3)ncc2C1 (stereo not shown) [Compound 42, 3-(2-(4-((3,4-difluorobenzyl)oxy)phenyl)-7,8-dihydropyrido[4,3-d]pyrimidin-6(5H)-yl)butanoic acid]
> 1000	> 1000	10 to 100		Cc1ccc(COc2ccc(-c3ccc4c(n3)CCN(CCC(=O)O)C4)cc2)cc1C(F)(F)F [Compound 154, 3-(2-(4-((3-trifluoromethyl-4-(methyl)benzyl)oxy)phenyl)-7,8-dihydro-1,6-naphthyridin-6(5H)-yl)propanoic acid]
> 1000	> 1000	< 10		O=C(O)CCN1CCc2nc(-c3ccc(OCc4ccc(C(F)(F)F)cc4)cc3)ncc2C1 [Compound 81, 3-(2-(4-((4-(trifluoromethyl)benzyl)oxy)phenyl)-7,8-dihydropyrido[4,3-d]pyrimidin-6(5H)-yl)propanoic acid]
> 1000	> 1000	10 to 100		Cc1cc(-c2ccc3c(n2)CCN(CCC(=O)O)C3)ccc1OCc1ccc(F)cc1 [Compound 168, 3-(2-(4-((4-fluorobenzyl)oxy)-3-methylphenyl)-7,8-dihydro-1,6-naphthyridin-6(5H)-yl)propanoic acid]
> 1000	> 1000	1000 to 10000		CC(C)Oc1ccc(-c2ncc3c(n2)CCN(CCCC(=O)O)C3)cc1 [Compound 46, 4-(2-(4-isopropoxyphenyl)-7,8-dihydropyrido[4,3-d]pyrimidin-6(5H)-yl)butanoic acid]
> 1000	> 1000	10 to 100		O=C(O)CCN1CCc2nc(-c3ccc(OCc4cccc(OC(F)F)c4)cc3)ncc2C1 [Compound 92, 3-(2-(4-((3-(difluoromethoxy)benzyl)oxy)phenyl)-7,8-dihydropyrido[4,3-d]pyrimidin-6(5H)-yl)propanoic acid]
> 1000	> 1000	< 10		O=C(O)CCCN1CCc2nc(-c3ccc(OCc4cccc(Cl)c4)cc3)ncc2C1 [Compound 38, 4-(2-(4-((3-chlorobenzyl)oxy)phenyl)-7,8-dihydropyrido[4,3-d]pyrimidin-6(5H)-yl)butanoic acid]
> 1000	> 1000	1000 to 10000		O=C(O)CCN1CCc2ncc(-c3ccc(OCc4ccc(Cl)cc4)cc3)nc2C1 [Compound 223, 3-(3-(4-((4-chlorobenzyl)oxy)phenyl)-7,8-dihydropyrido[3,4-b]pyrazin-6(5H)-yl)propanoic acid]
> 1000	> 1000	< 10		O=C(O)CCN1CCc2nc(-c3ccc(OCc4ccc(C(F)(F)F)cc4)cc3)ccc2C1 [Compound 152, 3-(2-(4-((4-trifluoromethylbenzyl)oxy)phenyl)-7,8-dihydro-1,6-naphthyridin-6(5H)-yl)propanoic acid]
> 1000	> 1000	< 10		CC(CN1CCc2nc(-c3ccc(OCc4ccc(F)c(F)c4)cc3)ncc2C1)C(=O)O (stereo not shown) [Compound 11, 3-(2-(4-((3,4-difluorobenzyl)oxy)phenyl)-7,8-dihydropyrido[4,3-d]pyrimidin-6(5H)-yl)-2-methylpropanoic acid]
> 1000	> 1000	1000 to 10000		CC(C)Oc1ccc(-c2ncc3c(n2)CCN(CCCC(=O)O)C3)cc1Cl [Compound 47, 4-(2-(3-chloro-4-isopropoxyphenyl)-7,8-dihydropyrido[4,3-d]pyrimidin-6(5H)-yl)butanoic acid]
> 1000	> 1000	< 10		O=C(O)CCN1CCc2nc(-c3ccc(OCc4cccc(Cl)c4)cc3)ncc2C1 [Compound 72, 3-(2-(4-((3-chlorobenzyl)oxy)phenyl)-7,8-dihydropyrido[4,3-d]pyrimidin-6(5H)-yl)propanoic acid]
> 1000	> 1000	1000 to 10000		O=C(O)CCCN1CCc2nc(C#Cc3cc(F)ccc3F)ncc2C1 [Compound 49, 4-(2-((2,5-difluorophenyl)ethynyl)-7,8-dihydropyrido[4,3-d]pyrimidin-6(5H)-yl)butanoic acid]
> 1000	> 1000	10 to 100		O=C(O)CCN1CCc2nc(-c3ccc(OCc4ccccc4OC(F)(F)F)cc3)ncc2C1 [Compound 84, 3-(2-(4-((2-(trifluoromethoxy)benzyl)oxy)phenyl)-7,8-dihydropyrido[4,3-d]pyrimidin-6(5H)-yl)propanoic acid]
> 1000	> 1000	100 to 1000		CC(CN1CCc2nc(-c3ccc(OCc4ccccc4F)c(Cl)c3)ccc2C1)C(=O)O (stereo not shown) [Compound 105, 3-(2-(4-((2-fluorobenzyl)oxy)-3-chlorophenyl)-7,8-dihydro-1,6-naphthyridin-6(5H)-yl)-2-methylpropanoic acid]
> 1000	> 1000	1000 to 10000		O=C(O)CCCN1CCc2nc(C#Cc3ccccc3)ncc2C1 [Compound 48, 4-(2-(phenylethynyl)-7,8-dihydropyrido[4,3-d]pyrimidin-6(5H)-yl)butanoic acid]
> 1000	> 1000	100 to 1000		CC(CC(=O)O)N1CCc2nc(-c3ccc(OCc4cccc(Cl)c4)cc3)ncc2C1 (stereo not shown) [Compound 43, 3-(2-(4-((3-chlorobenzyl)oxy)phenyl)-7,8-dihydropyrido[4,3-d]pyrimidin-6(5H)-yl)butanoic acid]
> 1000	> 1000	10 to 100		CC(CN1CCc2nc(-c3ccc(OCc4ccccc4)c(F)c3)ccc2C1)C(=O)O (stereo not shown) [Compound 103, 3-(2-(4-(benzyloxy)-3-fluorophenyl)-7,8-dihydro-1,6-naphthyridin-6(5H)-yl)-2-methylpropanoic acid]
		100 to 1000		O=C(O)CC1(CN2CCc3nc(-c4ccc(OCc5ccc(Cl)cc5)cc4)ncc3C2)CC1 [Compound 286, 2-((4(2-(4-((4-chlorobenzyl)oxy)phenyl)-7,8-dihydropyrido[4,3-d]pyrimidin-6(5H)-yl)methyl)cyclopropyl)acetic acid]
	> 1000		> 1000	CC(CC(=O)O)CN1Cc2cnc(-c3ccc(OCc4ccc(Cl)cc4)cc3)nc2CC12CCC2 (stereo not shown) [Compound 326, 4-(2′-(4-((4-chlorobenzyl)oxy)phenyl)-5′H-spiro[cyclobutane-1,7′-pyrido[4,3-d]pyrimidin]-6′(8′H)-yl)-3-methylbutanoic acid]
		1000 to 10000		O=C(O)CC1(CN2CCc3nc(-c4ccc(OCc5cccc(Cl)c5)cc4)ncc3C2)CC1 [Compound 327, 2-((4(2-(4-((3-chlorobenzyl)oxy)phenyl)-7,8-dihydropyrido[4,3-d]pyrimidin-6(5H)-yl)methyl)cyclopropyl)acetic acid]
